Ends that are not written are not given here. * marks the point of attachment. Man3GlcNAc2 = CC(=O)N[C@@H]1[C@@H](O)[C@H](O[C@@H]2O[C@H](CO)[C@@H](O[C@@H]3O[C@H](CO[C@H]4O[C@H](CO)[C@@H](O)[C@H](O)[C@@H]4O)[C@@H](O)[C@H](O[C@H]4O[C@H](CO)[C@@H](O)[C@H](O)[C@@H]4O)[C@@H]3O)[C@H](O)[C@H]2NC(C)=O)[C@@H](CO)O[C@H]1*
What was measured:
BnAb PG9 [1] = assay: SPR (Biacore) binding of V1V2 antigens to BnAb PG9; details: FIG. 1B, antigen 200 μg/ml
Description: (§1) FIGS. 1A-1E. Initial evaluation of synthetic V1V2 glycopeptide constructs. […] Surface plasmon reasonance (SPR) analysis of the interaction of V1V2 Man5GlcNAc2 (green), Man3GlcNAc2 (red), GlcNAc2 (blue), or aglycone (magenta) antigens with BnAbs PG9 (FIG. 1B), CH01 (FIG. 1C), or their respective umutated common ancestor (UCA) antibodies, PG9 UCA (FIG. 1D), and CH01-04 UCA (FIG. 1E). Concentration of antigens was 200 μg/ml for FIGS. […], and 100 μg/ml for FIGS. 1D and 1E, RU=response units
(§2) Using chemical methods (see, for example, those referenced above), a set of homogeneous V1V2 glycopeptides bearing Man3GlcNAc2, Man5GlcNAc2, and GlcNAc2 N-glycans were synthesized de novo (FIG. 1A). […] Importantly, binding by the naked “aglycone” (FIGS. 1B,C) or the solitary protein-free Man3 and Man5 oligosaccharides (data not shown) was not observed.

PGT128 [2] = details: protein-free glycan; cited from earlier work
BnAb CH01 [3] = assay: SPR (Biacore) binding of V1V2 antigens to BnAb CH01; details: FIG. 1C, antigen 200 μg/ml
Description: as §1, §2

PGTs 125-128 and 130 = details: cited from earlier work
[4] = test system: V3 loop non-neutralizing mAb 19b; assay: SPR binding to captured V3 loop non-neutralizing mAb 19b; details: FIG. 12 and FIG. 13D
Description: (§3) Both PGT128 and PGT125 are dependent on Man9 glycans on position N332 and N301 (Pejchal et al., 2011), with N332 being the primary glycan.
(§4) Binding of V3 Bnab to Man9 glycan.

2G12 = assay: Binding to mAb 2G12; details: FIG. 13C
Description: (§5) FIG. 13A-D show binding of PGT mAbs to synthetic Man9GlcNAc2 glycan. Binding of V3 Bnab to Man9 glycan. […] Thus, the binding of Man9GlcnAc2 glycan was detected only for V3-glycan dependent PGT BNAbs.
FIGS. 11-13 depict various experimental data showing that synthetic glycopeptides, such as for example the peptide of FIG. 1, can show differential binding to bnAbs vs non-neutralizing antibodies. […] Both 2G12 mAb and 2G12 UCA bound well to Man5 V1V2 dimer, indicating recognition of the glycan cluster on a V2 backbone.

PGT125 = assay: SPR binding to captured mAb PGT125; details: FIG. 13B
Description: as §3, §4

PGT128 [5] = assay: SPR binding to captured mAb PGT128; details: FIG. 13A
Description: as §3, §4

V1V2 mAb PGT145 = assay: Binding to V1V2 mAb PGT145; details: FIG. 13D
Description: as §5

CH01-04 UCA = assay: SPR binding of V1V2 antigens to CH01 UCA; details: FIG. 1E, antigen 100 μg/ml
Description: as §1
(§6) This is the first antigen known to bind to the PG9 UCA. […] Thus, these two V1V2 peptide-glycans have selective reactivity toward the V1V2 BnAbs, and react poorly or not at all with the CH58 mature and UCA antibodies. Therefore, these V1V2 peptide-glycan immunogens are prime candidates for selective induction of V1V2 BnAb lineages that are normally sub-dominant with infrequent UCAs.

CH58 UCA = assay: Reactivity of CH58 UCA toward V1V2 glycopeptides; format: binding; details: data not shown
Description: as §6

PG9 UCA = assay: SPR binding of V1V2 antigens to PG9 UCA; details: FIG. 1D, antigen 100 μg/ml
Description: as §1, §6

RV144 mAb CH58 = assay: Reactivity of RV144 mAb CH58 toward V1V2 glycopeptides; format: binding; details: data not shown
Description: as §6

BnAb PG9 [6] = details: from previous work; cited from earlier work
BnAb CH01 [7] = details: from previous work; cited from earlier work

Compound: CC(=O)N[C@H]1[C@H](O[C@H]2[C@H](O)[C@@H](NC(C)=O)C(O)O[C@@H]2CO)O[C@H](CO)[C@@H](O[C@@H]2O[C@H](CO[C@H]3O[C@H](CO)[C@@H](O)[C@H](O)[C@@H]3O)[C@@H](O)[C@H](O[C@H]3O[C@H](CO)[C@@H](O)[C@H](O)[C@@H]3O)[C@@H]2O)[C@@H]1O (stereo partly drawn) [Man3 oligosaccharide, Man3GlcNAc2]
- binding to BnAb PG9 (BnAb PG9 [1]): not observed
- binding of PGT128 on glycan arrays (PGT128 [2]): not observed
- binding to BnAb CH01 (BnAb CH01 [3]): not observed

Compound: CC(=O)N[C@@H]1[C@@H](O)[C@H](O[C@@H]2O[C@H](CO)[C@@H](O[C@H]3O[C@H](CO[C@H]4O[C@H](CO[C@H]5O[C@H](CO)[C@@H](O)[C@H](O)[C@@H]5O[C@H]5O[C@H](CO)[C@@H](O)[C@H](O)[C@@H]5O)[C@@H](O)[C@H](O[C@H]5O[C@H](CO)[C@@H](O)[C@H](O)[C@@H]5O)[C@@H]4O)[C@@H](O)[C@H](O[C@H]4O[C@H](CO)[C@@H](O)[C@H](O)[C@@H]4O[C@H]4O[C@H](CO)[C@@H](O)[C@H](O)[C@@H]4O[C@H]4O[C@H](CO)[C@@H](O)[C@H](O)[C@@H]4O)[C@@H]3O)[C@H](O)[C@H]2NC(C)=O)[C@@H](CO)O[C@H]1O [Man8, reference compound]
- binding of PGTs 125-128 and 130 on glycan arrays (PGTs 125-128 and 130): showed binding

Compound: CC(=O)N[C@H]1[C@H](O[C@H]2[C@H](O)[C@@H](NC(C)=O)C(O)O[C@@H]2CO)O[C@H](CO)[C@@H](O[C@@H]2O[C@H](CO[C@H]3O[C@H](CO[C@H]4O[C@H](CO)[C@@H](O)[C@H](O)[C@@H]4O[C@H]4O[C@H](CO)[C@@H](O)[C@H](O)[C@@H]4O)[C@@H](O)[C@H](O[C@H]4O[C@H](CO)[C@@H](O)[C@H](O)[C@@H]4O[C@H]4O[C@H](CO)[C@@H](O)[C@H](O)[C@@H]4O)[C@@H]3O)[C@@H](O)[C@H](O[C@H]3O[C@H](CO)[C@@H](O)[C@H](O)[C@@H]3O[C@H]3O[C@H](CO)[C@@H](O)[C@H](O)[C@@H]3O[C@H]3O[C@H](CO)[C@@H](O)[C@H](O)[C@@H]3O)[C@@H]2O)[C@@H]1O (stereo partly drawn) [Man9 glycan, Man9GlcNAc2]
- binding of PGTs 125-128 and 130 on glycan arrays (PGTs 125-128 and 130): showed binding
- binding to non-neutralizing V3 mAb 19b [4]: no binding
- 2G12 binding to free glycan (2G12): only detected at the highest concentration
- affinity of PGT125 binding to free glycan (PGT125): affinities in μM
- affinity of PGT128 binding to free glycan (PGT128 [5]): affinities in μM
- binding to V1V2 mAb PGT145 (V1V2 mAb PGT145): no binding

Compound: Man3 construct: V1V2 glycopeptide (SEQ ID NO: 9, AE.CM244/A244) bearing two N-linked Man3GlcNAc2 at N160 and N156 (ITDEVRN(Man3GlcNAc2)CSFN(Man3GlcNAc2)MTTELRDKKQKVHALFYKLDIVPI)
- binding to BnAb PG9 (BnAb PG9 [1]): bind
- affinity for CH01 UCA (CH01-04 UCA): significant affinity
- reactivity of CH58 UCA (CH58 UCA): only weak reactivity
- affinity for PG9 UCA (PG9 UCA): significant affinity
- reactivity of mAb CH58 (RV144 mAb CH58): only weak reactivity
- binding to BnAb CH01 (BnAb CH01 [3]): bind

Compound: Man5 construct: V1V2 glycopeptide (SEQ ID NO: 9) bearing two N-linked Man5GlcNAc2 at N160 and N156 (ITDEVRN(Man5GlcNAc2)CSFN(Man5GlcNAc2)MTTELRDKKQKVHALFYKLDIVPI)
- binding to BnAb PG9 (BnAb PG9 [1]): bind
- affinity for CH01 UCA (CH01-04 UCA): to a lesser extent
- reactivity of CH58 UCA (CH58 UCA): almost no affinity
- reactivity of mAb CH58 (RV144 mAb CH58): almost no affinity
- binding to BnAb CH01 (BnAb CH01 [3]): bind

Compound: Man5GlcNAc2 [Man5 oligosaccharide]
- binding to BnAb PG9 (BnAb PG9 [1]): not observed
- binding to BnAb CH01 (BnAb CH01 [3]): not observed

Compound: aglycone: V1V2 peptide of SEQ ID NO: 9 with zero glycans (ITDEVRNCSFNMTTELRDKKQKVHALFYKLDIVPI)
- binding to BnAb PG9 (BnAb PG9 [1]): not observed
- binding to PG9 (BnAb PG9 [6]): did not show binding
- binding to BnAb CH01 (BnAb CH01 [3]): not observed
- binding to CH01 (BnAb CH01 [7]): did not show binding

— patent US10286057B2, “Cyclic HIV-1 Env V3 glycopeptide immunogens” (DUKE UNIVERSITY, priority 2013, dated 2019)
